In US20260022095A1, “COMPOUNDS USEFUL FOR THE PREPARATION OF VARIOUS AGROCHEMICALS AND MARKERS THEREOF” (ADAMA AGAN LTD., priority 2021, published 2026):

Assay: Sunlight exposure of buffered aqueous Tetflupyrolimet solutions, Storage Marker formation by HPLC-MS
Type: physicochemical
Conditions: natural sunlight approximately 2 months; for concentration of the Storage Marker as compared to the solution buffered at pH=7: quartz tube
Protocol: Three lots of about 50 mg of Tetflupyrolimet were each suspended in about 2 ml of a 2% solution of acetonitrile in water, and sonicated for about 20 minutes.
Into each, about 0.1 ml of a different buffer was added, pH=4, pH=7 and pH=10 respectively.
The three solutions were each filtered and introduced to quartz tubes and exposed to natural sunlight for approximately 2 months.
• Column: Agilent Zorbax Eclipse XDB C18, 150×4.6 mm ID, 5.0 μm • Injection volume: 5 μL • Oven temperature: 40° C. • Detector: UV, □=230, 250, 280 nm • Solvent delivery system conditions at flow rate of 1.0 ml/min: […]

## CN1C[C@H](c2cccc(C(F)(F)F)c2)[C@@H](C(=O)Nc2ccccc2F)C1=O [Tetflupyrolimet, (3S,4S)—N-(2-fluorophenyl)-1-methyl-2-oxo-4-(3-(trifluoromethyl)phenyl) pyrrolidine-3-carboxamide]
2% acetonitrile in water, buffered at pH=4, pH=7 and pH=10, quartz tubes
  formation of Storage Marker (HPLC-MS): formation of Storage Marker in each solution
Solution buffered at pH 4
  concentration of the Storage Marker as compared to the solution buffered at pH=7: approximately an order of magnitude higher concentration of the Storage Marker
Solution buffered at pH 10
  concentration of the Storage Marker as compared to the solution buffered at pH=7: approximately an order of magnitude higher concentration of the Storage Marker
